This is an account of results in patent US20090156577A1, “7-AMINO ALKYLIDENYL-HETEROCYCLIC QUINOLONES AND NAPHTHYRIDONES” (priority 2004, published 2009).

The assay relates to pathogenic bacteria. Nature of the assay: MIC by microdilution broth method (NCCLS M7-A4), in vitro antibacterial activity. It is filed as cell-based. The procedure, abridged:
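Broth microdilution per NCCLS M7-A4: two-fold serial dilutions in cation-adjusted Mueller-Hinton broth, inoculum about 5×10^4 CFU/well. Trays incubated 16–20 h at 35 °C. MIC read by comparing growth against no-compound growth controls.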

The mark [1] stands for this setting: Streptococcus pneumoniae, Organism B: fluoroquinolone-resistant clinical isolate of Streptococcus pneumoniae (QRDR amino acid substitutions).
Where [2] appears, read: Streptococcus pneumoniae, Organism C: fluoroquinolone-resistant clinical isolate of Streptococcus pneumoniae (QRDR amino acid substitutions).
The mark [3] stands for this setting: Streptococcus pneumoniae, Organism D: fluoroquinolone-resistant clinical isolate of Streptococcus pneumoniae (QRDR amino acid substitutions).
[4] abbreviates: Staphylococcus aureus, Organism A: Staphylococcus aureus OC4172, read-out: MIC.
The mark [5] stands for this setting: Streptococcus pneumoniae, ATCC49619, Organism E: Streptococcus pneumoniae ATCC 49619, read-out: MIC.

Values after ≈ are worked out from the molar mass of the structure shown. Where a name gives a salt, the structure may show the parent alone. Read-outs that look alike come from different tables or passages of the source.

On to `CNCC(Cl)=C1CN(c2cc3c(cc2F)c(=O)c(C(=O)O)cn3C2CC2)C1` [Compound 431, 7-[3-(1-Chloro-2-methylamino-ethylidene)-azetidin-1-yl]-1-cyclopropyl-6-fluoro-4-oxo-1,4-dihydro-quinoline-3-carboxylic acid trifluoroacetic acid salt], for which the MIC was determined as 0.06 µg/mL (Staphylococcus aureus, Organism A: Staphylococcus aureus OC4172); 0.25 µg/mL (Streptococcus pneumoniae, ATCC49619, Organism E: Streptococcus pneumoniae ATCC 49619); 4 µg/mL under setting [1]; 1 µg/mL under setting [2]; 2 µg/mL under setting [3].

`COc1c(N2CCC(=C(C#N)CN)CC2)c(F)cc2c(=O)c(C(=O)O)cn(C3CC3)c12` [Compound 433, 7-[4-(2-Amino-1-cyano-ethylidene)-piperidin-1-yl]-1-cyclopropyl-6-fluoro-8-methoxy-4-oxo-1,4-dihydro-quinoline-3-carboxylic Acid]: the MIC runs as follows: under setting [4], at most 0.015 µg/mL; under setting [5], 0.12 µg/mL (≈ 0.281 µM); under setting [2], 0.5 µg/mL (≈ 1.17 µM); under setting [3], 0.5 µg/mL (≈ 1.17 µM).

Consider `C[C@H]1COc2c(N3CCC(=C(C#N)CN)CC3)c(F)cc3c(=O)c(C(=O)O)cn1c23` [Compound 435, 9-[4-(2-Amino-1-cyano-ethylidene)-piperidin-1-yl]-8-fluoro-(3S)-3-methyl-6-oxo-2,3-dihydro-6H-1-oxa-3a-aza-phenalene-5-carboxylic Acid], for which the MIC under setting [4] amounted to 0.12 µg/mL (≈ 0.291 µM), the MIC under setting [5] was determined as 0.5 µg/mL (≈ 1.21 µM), the MIC under setting [2] stood at 4 µg/mL (≈ 9.7 µM) and the MIC under setting [3] turned out to be 8 µg/mL (≈ 19.4 µM).

In the case of `N#CC(CN)=C1CCN(c2c(F)cc3c(=O)c(C(=O)O)cn(C4CC4)c3c2OC(F)F)CC1` [Compound 437, 7-[4-(2-Amino-1-cyano-ethylidene)-piperidin-1-yl]-1-cyclopropyl-6-fluoro-8-difluoromethoxy-4-oxo-1,4-dihydro-quinoline-3-carboxylic Acid], the MIC runs as follows: under setting [4], 0.06 µg/mL (≈ 0.13 µM); under setting [5], 0.12 µg/mL (≈ 0.259 µM); under setting [2], 1 µg/mL (≈ 2.16 µM); under setting [3], 0.25 µg/mL (≈ 0.541 µM).

Regarding `COc1c(N2CCC(=C(C#N)CN)CC2)c(F)cc2c(=O)c(C(=O)O)cn([C@@H]3C[C@@H]3F)c12` [Compound 439, 7-[4-(2-Amino-1-cyano-ethylidene)-piperidin-1-yl]-6-fluoro-(1R,2S)-1-(2-fluoro-cyclopropyl)-8-methoxy-4-oxo-1,4-dihydro-quinoline-3-carboxylic Acid], the MIC runs as follows: under setting [4], 0.06 µg/mL (≈ 0.135 µM); under setting [5], 0.25 µg/mL (≈ 0.563 µM); under setting [2], 2 µg/mL (≈ 4.5 µM); under setting [3], 2 µg/mL (≈ 4.5 µM).

`N#C/C(CN)=C1\CCCN(c2nc3c(cc2F)c(=O)c(C(=O)O)cn3C2CC2)C1` [Compound 441, (E)-7-[3-(2-Amino-1-cyano-ethylidene)-piperidin-1-yl]-1-cyclopropyl-6-fluoro-4-oxo-1,4-dihydro-[1,8]naphthyridine-3-carboxylic Acid]: the MIC is, setting by setting: under setting [4], 0.5 µg/mL (≈ 1.26 µM); under setting [5], 8 µg/mL (≈ 20.1 µM); under setting [1], 8 µg/mL (≈ 20.1 µM); under setting [2], above 16 µg/mL; under setting [3], above 16 µg/mL.

For the compound `N#C/C(CN)=C1/CCCN(c2nc3c(cc2F)c(=O)c(C(=O)O)cn3C2CC2)C1` [Compound 443, (Z)-7-[3-(2-Amino-1-cyano-ethylidene)-piperidin-1-yl]-1-cyclopropyl-6-fluoro-4-oxo-1,4-dihydro-[1,8]naphthyridine-3-carboxylic Acid], the MIC runs as follows: under setting [4], 0.5 µg/mL (≈ 1.26 µM); under setting [5], 8 µg/mL (≈ 20.1 µM); under setting [1], 8 µg/mL (≈ 20.1 µM); under setting [2], above 16 µg/mL; under setting [3], above 16 µg/mL.

On to `COc1c(N2CCC(=C(Cl)CNC(=O)CN)CC2)c(F)cc2c(=O)c(C(=O)O)cn(C3CC3)c12.O=C(O)C(F)(F)F` [Compound 445, 7-{4-[2-(2-Amino-acetylamino)-1-chloro-ethylidene]-piperidin-1-yl}-1-cyclopropyl-6-fluoro-8-methoxy-4-oxo-1,4-dihydro-quinoline-3-carboxylic Acid Trifluoroacetate Salt], for which the MIC reads like this: under setting [4], 0.12 µg/mL; under setting [5], 1 µg/mL; under setting [1], 16 µg/mL; under setting [2], above 16 µg/mL; under setting [3], above 16 µg/mL.

Turning to `COc1c(N2CCC/C(=C(/Cl)CN)C2)c(F)cc2c(=O)c(C(=O)O)cn(C3CC3)c12` [Compound 446, (Z)-7-[3-(2-Amino-1-chloro-ethylidene)-piperidin-1-yl]-1-cyclopropyl-6-fluoro-8-methoxy-4-oxo-1,4-dihydro-quinoline-3-carboxylic acid], the MIC under setting [4] was found to be 0.25 µg/mL (≈ 0.574 µM), the MIC under setting [5] came to 1 µg/mL (≈ 2.29 µM), the MIC under setting [2] turned out to be 4 µg/mL (≈ 9.18 µM) and the MIC under setting [3] worked out at 4 µg/mL (≈ 9.18 µM).

For the compound `NC/C(Cl)=C1\CCCN(c2c(F)cc3c(=O)c(C(=O)O)cn(C4CC4)c3c2OC(F)F)C1` [Compound 447, (Z)-7-[3-(2-Amino-1-chloro-ethylidene)-piperidin-1-yl]-1-cyclopropyl-8-difluoromethoxy-6-fluoro-4-oxo-1,4-dihydro-quinoline-3-carboxylic acid], the MIC reads like this: under setting [4], 0.25 µg/mL (≈ 0.53 µM); under setting [5], 1 µg/mL (≈ 2.12 µM); under setting [2], 16 µg/mL (≈ 33.9 µM); under setting [3], 1 µg/mL (≈ 2.12 µM).

As to `C[C@H]1COc2c(N3CCC/C(=C(/Cl)CN)C3)c(F)cc3c(=O)c(C(=O)O)cn1c23` [Compound 448, (Z)-9-[3-(2-Amino-1-chloro-ethylidene)-piperidin-1-yl]-8-fluoro-(3S)-3-methyl-6-oxo-2,3-dihydro-6H-1-oxa-3a-aza-phenalene-5-carboxylic acid], the MIC came to 0.25 µg/mL (≈ 0.593 µM) under setting [4], 2 µg/mL (≈ 4.74 µM) under setting [5], 8 µg/mL (≈ 19 µM) under setting [2] and 16 µg/mL (≈ 37.9 µM) under setting [3].

In the case of `COc1c(N2CCC/C(=C(/Cl)CN)C2)c(F)cc2c(=O)c(C(=O)O)cn([C@@H]3C[C@@H]3F)c12` [Compound 449, (Z)-7-[3-(2-Amino-1-chloro-ethylidene)-piperidin-1-yl]-6-fluoro-(1R,2S)-1-(2-fluoro-cyclopropyl)-8-methoxy-4-oxo-1,4-dihydro-quinoline-3-carboxylic acid], the MIC is, setting by setting: under setting [4], 0.25 µg/mL (≈ 0.551 µM); under setting [5], 2 µg/mL (≈ 4.41 µM); under setting [2], above 16 µg/mL; under setting [3], 16 µg/mL (≈ 35.3 µM).

Turning to `NC/C(Cl)=C1\CCCN(c2c(F)cc3c(=O)c(C(=O)O)cn(-c4nc(N)c(F)cc4F)c3c2Cl)C1` [Compound 450, (Z)-7-[3-(2-Amino-1-chloro-ethylidene)-piperidin-1-yl]-1-(6-amino-3,5-difluoro-pyridin-2-yl)-8-chloro-6-fluoro-4-oxo-1,4-dihydro-quinoline-3-carboxylic acid], the MIC is 0.12 µg/mL (≈ 0.227 µM) under setting [4], 0.5 µg/mL (≈ 0.946 µM) under setting [5], 8 µg/mL (≈ 15.1 µM) under setting [2] and 8 µg/mL (≈ 15.1 µM) under setting [3].

On to `Cc1c(F)c(N2CCC/C(=C\CN)C2)cc2c1c(=O)c(C(=O)O)cn2C1CC1` [Compound 451, (E)-7-[3-(2-Amino-ethylidene)-piperidin-1-yl]-1-cyclopropyl-6-fluoro-5-methyl-4-oxo-1,4-dihydro-quinoline-3-carboxylic acid], for which the MIC amounted to 0.25 µg/mL (≈ 0.649 µM) under setting [4], 1 µg/mL (≈ 2.59 µM) under setting [5], 16 µg/mL (≈ 41.5 µM) under setting [2] and 1 µg/mL (≈ 2.59 µM) under setting [3].

With `Cc1c(F)c(N2CCC/C(=C(/Cl)CN)C2)cc2c1c(=O)c(C(=O)O)cn2C1CC1` [Compound 452, (Z)-7-[3-(2-Amino-1-chloro-ethylidene)-piperidin-1-yl]-1-cyclopropyl-6-fluoro-5-methyl-4-oxo-1,4-dihydro-quinoline-3-carboxylic acid], the MIC under setting [4] is 0.5 µg/mL (≈ 1.19 µM), the MIC under setting [5] amounted to 4 µg/mL (≈ 9.53 µM), the MIC under setting [2] amounted to 4 µg/mL (≈ 9.53 µM) and the minimum inhibitory concentration (MIC) under setting [3] was above 16 µg/mL.

With `CNC/C(F)=C1/CCCN(c2c(F)cc3c(=O)c(C(=O)O)cn(C4CC4)c3c2OC)C1.Cl` [Compound 453, (E)-1-Cyclopropyl-6-fluoro-7-[3-(1-fluoro-2-methylamino-ethylidene)-piperidin-1-yl]-8-methoxy-4-oxo-1,4-dihydro-quinoline-3-carboxylic Acid Hydrochloride Salt], the MIC reads like this: under setting [4], 0.06 µg/mL; under setting [5], 0.25 µg/mL; under setting [2], 4 µg/mL; under setting [3], 2 µg/mL.

As to `COc1c(N2CCC(=C(Cl)CN)CC2)c(F)c(C)c2c(=O)c(C(=O)O)cn(C3CC3)c12` [Compound 455, 7-[4-(2-Amino-1-chloro-ethylidene)-piperidin-1-yl]-1-cyclopropyl-6-fluoro-8-methoxy-5-methyl-4-oxo-1,4-dihydro-quinoline-3-carboxylic Acid], the MIC is at most 0.015 µg/mL under setting [4]; 0.25 µg/mL (≈ 0.556 µM) under setting [5]; 0.12 µg/mL (≈ 0.267 µM) under setting [1]; 2 µg/mL (≈ 4.45 µM) under setting [2]; 1 µg/mL (≈ 2.22 µM) under setting [3].

Take `NC/C(F)=C1/CCCN(c2c(F)c(N)c3c(=O)c(C(=O)O)cn(C4CC4)c3c2F)C1` [Compound 456, 5-Amino-7-[(E)-3-(2-amino-1-fluoro-ethylidene)-piperidin-1-yl]-1-cyclopropyl-6,8-difluoro-4-oxo-1,4-dihydro-quinoline-3-carboxylic Acid]: the MIC is at most 0.015 µg/mL under setting [4]; 0.03 µg/mL (≈ 0.071 µM) under setting [5]; 0.06 µg/mL (≈ 0.142 µM) under setting [1]; 0.12 µg/mL (≈ 0.284 µM) under setting [2]; 0.12 µg/mL (≈ 0.284 µM) under setting [3].

Take `NC/C(F)=C1/CCCN(c2c(F)cc3c(=O)c(C(=O)O)cn(C4CC4)c3c2OCF)C1` [Compound 457, 7-[(E)-3-(2-Amino-1-fluoro-ethylidene)-piperidin-1-yl]-1-cyclopropyl-6-fluoro-8-fluoromethoxy-4-oxo-1,4-dihydro-quinoline-3-carboxylic Acid]: the MIC was found to be 0.25 µg/mL (≈ 0.572 µM) under setting [4]; 1 µg/mL (≈ 2.29 µM) under setting [5]; 2 µg/mL (≈ 4.57 µM) under setting [1]; 8 µg/mL (≈ 18.3 µM) under setting [2]; 4 µg/mL (≈ 9.14 µM) under setting [3].
